Source: ChEMBL document CHEMBL4507296 (2021)
Active and inactive are the calls of the source. The rule behind the calls is not given here.

Columns and labels:
[1] = biological target: Serine/threonine-protein kinase B-raf (Homo sapiens) (UniProt P15056); details: Compound concentration 1000.0 nM
[2] = biological target: Transient receptor potential cation channel subfamily M member 8 (Homo sapiens, UniProt Q7Z2W7); assay: Cold activation
[3] = biological target: Cyclin-dependent kinase 3 (Homo sapiens) (UniProt Q00526); details: Compound concentration 1000.0 nM
Sequence of Cyclin-dependent kinase 3 (Homo sapiens) (Q00526 whole entry, looked up): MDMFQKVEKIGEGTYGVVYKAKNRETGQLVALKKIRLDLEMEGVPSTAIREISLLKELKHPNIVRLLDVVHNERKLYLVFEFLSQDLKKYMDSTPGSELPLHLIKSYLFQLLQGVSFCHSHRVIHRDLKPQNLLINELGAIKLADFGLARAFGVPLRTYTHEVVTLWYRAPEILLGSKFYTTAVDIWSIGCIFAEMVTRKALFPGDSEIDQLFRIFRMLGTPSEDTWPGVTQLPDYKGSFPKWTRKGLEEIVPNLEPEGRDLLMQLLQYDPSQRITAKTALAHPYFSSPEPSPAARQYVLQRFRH

[4] = biological target: 5-hydroxytryptamine receptor 2C (Homo sapiens) (UniProt P28335); details: Compound concentration 10.0 uM
[5] = biological target: Hepatocyte growth factor receptor (Homo sapiens) (UniProt P08581); details: Compound concentration 1000.0 nM
[6] = biological target: Glycogen synthase kinase-3 beta (Homo sapiens) (UniProt P49841); details: Compound concentration 1000.0 nM
[7] = biological target: Serine/threonine-protein kinase 35 (Homo sapiens) (UniProt Q8TDR2); details: Compound concentration 1000.0 nM
[8] = biological target: Casein kinase I isoform epsilon (Homo sapiens) (UniProt P49674); details: Compound concentration 1000.0 nM
[9] = biological target: Cyclin-dependent kinase 13 (Homo sapiens) (UniProt Q14004); details: Compound concentration 1000.0 nM
[10] = biological target: Interleukin-1 receptor-associated kinase 4 (Homo sapiens) (UniProt Q9NWZ3); details: Compound concentration 1000.0 nM
[11] = biological target: 5'-AMP-activated protein kinase catalytic subunit alpha-2 (Homo sapiens) (UniProt P54646); details: Compound concentration 1000.0 nM
[12] = biological target: Serine/threonine-protein kinase PLK2 (Homo sapiens) (UniProt Q9NYY3); details: Compound concentration 1000.0 nM
[13] = tested on: Proto-oncogene tyrosine-protein kinase receptor Ret (Homo sapiens), P07949 [M918T]; details: Compound concentration 1000.0 nM
[14] = biological target: Serine/threonine-protein kinase 36 (Homo sapiens) (UniProt Q9NRP7); details: Compound concentration 1000.0 nM
Sequence of Serine/threonine-protein kinase 36 (Homo sapiens) (Q9NRP7 whole entry): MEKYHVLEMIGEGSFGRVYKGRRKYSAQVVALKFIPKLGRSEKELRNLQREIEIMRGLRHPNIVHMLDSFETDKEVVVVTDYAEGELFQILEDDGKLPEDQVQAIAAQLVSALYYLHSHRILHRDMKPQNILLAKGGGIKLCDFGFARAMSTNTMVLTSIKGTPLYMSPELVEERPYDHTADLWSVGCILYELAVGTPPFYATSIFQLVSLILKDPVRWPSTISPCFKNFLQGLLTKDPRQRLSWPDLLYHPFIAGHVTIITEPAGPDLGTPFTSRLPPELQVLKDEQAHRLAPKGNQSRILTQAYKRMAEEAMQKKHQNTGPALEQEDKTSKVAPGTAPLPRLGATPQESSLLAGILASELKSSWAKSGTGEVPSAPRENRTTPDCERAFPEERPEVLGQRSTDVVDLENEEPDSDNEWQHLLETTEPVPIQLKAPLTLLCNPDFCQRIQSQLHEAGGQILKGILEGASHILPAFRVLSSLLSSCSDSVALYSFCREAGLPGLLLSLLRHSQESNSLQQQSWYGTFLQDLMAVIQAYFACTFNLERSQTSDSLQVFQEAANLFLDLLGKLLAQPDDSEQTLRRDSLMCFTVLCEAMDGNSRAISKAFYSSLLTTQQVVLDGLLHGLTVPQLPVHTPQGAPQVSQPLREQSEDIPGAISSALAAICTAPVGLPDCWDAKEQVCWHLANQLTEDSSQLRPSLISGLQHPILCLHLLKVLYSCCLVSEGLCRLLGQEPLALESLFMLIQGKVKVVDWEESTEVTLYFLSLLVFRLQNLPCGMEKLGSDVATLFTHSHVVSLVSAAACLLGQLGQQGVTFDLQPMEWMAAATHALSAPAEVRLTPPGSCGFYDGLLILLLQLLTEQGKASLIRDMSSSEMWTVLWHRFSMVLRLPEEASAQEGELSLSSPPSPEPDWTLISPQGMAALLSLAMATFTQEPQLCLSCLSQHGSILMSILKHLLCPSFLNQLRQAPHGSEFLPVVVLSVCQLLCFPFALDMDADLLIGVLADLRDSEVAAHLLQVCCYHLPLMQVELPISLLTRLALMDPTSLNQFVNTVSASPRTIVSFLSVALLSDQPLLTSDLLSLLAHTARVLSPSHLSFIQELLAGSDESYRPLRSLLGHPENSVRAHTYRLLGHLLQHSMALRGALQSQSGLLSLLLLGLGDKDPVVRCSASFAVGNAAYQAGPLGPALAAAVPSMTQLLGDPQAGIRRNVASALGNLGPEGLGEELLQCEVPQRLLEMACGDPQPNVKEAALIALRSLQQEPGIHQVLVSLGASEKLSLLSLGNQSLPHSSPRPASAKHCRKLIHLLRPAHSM

[15] = biological target: Testis-specific serine/threonine-protein kinase 3 (Homo sapiens) (UniProt Q96PN8); details: Compound concentration 1000.0 nM
[16] = biological target: Mast/stem cell growth factor receptor Kit (Homo sapiens) (UniProt P10721); details: Compound concentration 1000.0 nM
[17] = biological target: Leucine-rich repeat serine/threonine-protein kinase 2 (Homo sapiens) (UniProt Q5S007); details: Compound concentration 1000.0 nM
[18] = biological target: Interleukin-1 receptor-associated kinase 3 (Homo sapiens) (UniProt Q9Y616); details: Compound concentration 1000.0 nM
[19] = biological target: Serine/threonine-protein kinase 32A (Homo sapiens) (UniProt Q8WU08); details: Compound concentration 1000.0 nM
[20] = tested on: Epidermal growth factor receptor (Homo sapiens), P00533 [UNDEFINED MUTATION]; details: Compound concentration 1000.0 nM
Sequence of Epidermal growth factor receptor (Homo sapiens), P00533 [UNDEFINED MUTATION] (P00533 whole entry, looked up, change not shown): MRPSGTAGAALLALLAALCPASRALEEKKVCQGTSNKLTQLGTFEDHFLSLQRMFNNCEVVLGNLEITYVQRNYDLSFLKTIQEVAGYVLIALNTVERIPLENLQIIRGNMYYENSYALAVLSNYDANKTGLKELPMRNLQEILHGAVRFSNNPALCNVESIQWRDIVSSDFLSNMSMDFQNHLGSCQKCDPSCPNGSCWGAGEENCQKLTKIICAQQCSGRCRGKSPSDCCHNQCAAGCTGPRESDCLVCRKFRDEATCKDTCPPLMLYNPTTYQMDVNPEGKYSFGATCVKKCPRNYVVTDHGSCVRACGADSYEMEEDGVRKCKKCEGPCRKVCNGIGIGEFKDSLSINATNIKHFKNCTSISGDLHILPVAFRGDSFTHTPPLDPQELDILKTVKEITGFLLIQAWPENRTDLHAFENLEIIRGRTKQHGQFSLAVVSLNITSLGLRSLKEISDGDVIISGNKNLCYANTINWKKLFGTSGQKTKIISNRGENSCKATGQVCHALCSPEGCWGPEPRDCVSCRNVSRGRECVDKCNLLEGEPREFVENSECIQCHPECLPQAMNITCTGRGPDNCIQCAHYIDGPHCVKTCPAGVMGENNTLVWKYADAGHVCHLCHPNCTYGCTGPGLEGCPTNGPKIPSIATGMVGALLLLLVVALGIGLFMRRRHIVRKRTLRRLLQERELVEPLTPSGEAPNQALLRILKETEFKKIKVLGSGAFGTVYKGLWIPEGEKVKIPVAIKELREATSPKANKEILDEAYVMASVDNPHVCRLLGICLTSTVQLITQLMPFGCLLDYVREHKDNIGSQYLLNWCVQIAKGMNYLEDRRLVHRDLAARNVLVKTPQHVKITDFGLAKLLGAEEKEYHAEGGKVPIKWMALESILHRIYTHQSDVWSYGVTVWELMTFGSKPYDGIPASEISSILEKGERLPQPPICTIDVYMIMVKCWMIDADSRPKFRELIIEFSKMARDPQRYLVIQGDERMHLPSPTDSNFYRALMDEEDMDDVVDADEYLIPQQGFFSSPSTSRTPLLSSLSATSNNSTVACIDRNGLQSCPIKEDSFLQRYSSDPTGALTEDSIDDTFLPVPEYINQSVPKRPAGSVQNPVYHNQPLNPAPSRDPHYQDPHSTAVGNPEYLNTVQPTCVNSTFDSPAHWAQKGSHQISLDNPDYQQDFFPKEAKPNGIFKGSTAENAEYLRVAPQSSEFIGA

[21] = biological target: Tyrosine-protein kinase Blk (Homo sapiens) (UniProt P51451); details: Compound concentration 1000.0 nM
[22] = biological target: Receptor-interacting serine/threonine-protein kinase 2 (Homo sapiens) (UniProt O43353); details: Compound concentration 1000.0 nM
[23] = GPCRScan assay: inhibition of GABA/PBR; set-up: species or system Rattus norvegicus; radioligand conc. used [nm] 0.3 – 2.0, parental cells brain tissue
[24] = biological target: Casein kinase I isoform gamma-3 (Homo sapiens) (UniProt Q9Y6M4); details: Compound concentration 1000.0 nM
[25] = biological target: D(3) dopamine receptor (Homo sapiens) (UniProt P35462); details: Compound concentration 10.0 uM
[26] = biological target: Ephrin type-A receptor 1 (Homo sapiens) (UniProt P21709); details: Compound concentration 1000.0 nM
[27] = biological target: Serine/threonine-protein kinase PAK 5 (Homo sapiens) (UniProt Q9P286); details: Compound concentration 1000.0 nM
[28] = biological target: Phosphorylase b kinase gamma catalytic chain, skeletal muscle/heart isoform (Homo sapiens) (UniProt Q16816); details: Compound concentration 1000.0 nM
[29] = biological target: Histamine H1 receptor (Homo sapiens) (UniProt P35367); details: Compound concentration 10.0 uM
[30] = biological target: Tyrosine-protein kinase receptor UFO (Homo sapiens) (UniProt P30530); details: Compound concentration 1000.0 nM
Sequence of Tyrosine-protein kinase receptor UFO (Homo sapiens) (P30530 whole entry): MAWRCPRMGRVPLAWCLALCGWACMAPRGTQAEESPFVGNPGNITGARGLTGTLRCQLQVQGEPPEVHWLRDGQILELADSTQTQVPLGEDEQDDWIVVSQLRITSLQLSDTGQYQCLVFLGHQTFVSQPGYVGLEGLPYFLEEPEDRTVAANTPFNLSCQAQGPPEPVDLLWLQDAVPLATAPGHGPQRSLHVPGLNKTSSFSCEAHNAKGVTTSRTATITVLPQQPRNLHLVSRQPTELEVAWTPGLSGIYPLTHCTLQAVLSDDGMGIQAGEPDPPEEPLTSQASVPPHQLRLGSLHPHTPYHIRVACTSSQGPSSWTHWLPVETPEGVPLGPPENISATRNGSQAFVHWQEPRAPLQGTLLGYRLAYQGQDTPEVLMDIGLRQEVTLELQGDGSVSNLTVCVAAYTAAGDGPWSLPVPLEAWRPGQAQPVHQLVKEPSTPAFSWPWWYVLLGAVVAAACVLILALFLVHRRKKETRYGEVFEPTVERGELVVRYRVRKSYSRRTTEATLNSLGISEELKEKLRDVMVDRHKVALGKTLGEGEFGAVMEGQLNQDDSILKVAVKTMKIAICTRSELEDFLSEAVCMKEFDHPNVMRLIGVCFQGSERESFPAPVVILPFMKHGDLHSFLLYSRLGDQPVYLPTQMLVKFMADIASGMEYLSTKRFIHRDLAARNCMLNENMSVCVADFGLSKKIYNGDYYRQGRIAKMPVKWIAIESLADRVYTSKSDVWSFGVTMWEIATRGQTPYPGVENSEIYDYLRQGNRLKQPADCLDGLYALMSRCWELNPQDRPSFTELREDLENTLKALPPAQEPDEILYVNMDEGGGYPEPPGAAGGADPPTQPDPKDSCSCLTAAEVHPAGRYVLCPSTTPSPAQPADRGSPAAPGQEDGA

[31] = biological target: Homeodomain-interacting protein kinase 4 (Homo sapiens) (UniProt Q8NE63); details: Compound concentration 1000.0 nM
[32] = biological target: Calcium/calmodulin-dependent protein kinase type 1D (Homo sapiens) (UniProt Q8IU85); details: Compound concentration 1000.0 nM
Sequence of Calcium/calmodulin-dependent protein kinase type 1D (Homo sapiens) (Q8IU85 whole entry, looked up): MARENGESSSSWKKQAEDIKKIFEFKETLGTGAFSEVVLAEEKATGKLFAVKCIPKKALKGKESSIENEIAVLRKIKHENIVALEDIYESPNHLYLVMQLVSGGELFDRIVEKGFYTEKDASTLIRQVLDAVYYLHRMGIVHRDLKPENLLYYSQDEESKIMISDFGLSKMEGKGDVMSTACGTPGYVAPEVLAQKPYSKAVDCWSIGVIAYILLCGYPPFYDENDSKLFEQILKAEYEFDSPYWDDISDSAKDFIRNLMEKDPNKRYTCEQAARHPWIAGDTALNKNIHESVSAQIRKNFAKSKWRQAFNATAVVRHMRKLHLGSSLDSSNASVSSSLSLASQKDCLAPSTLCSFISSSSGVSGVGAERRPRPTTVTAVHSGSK

[33] = biological target: Cyclin-dependent kinase 11B (Homo sapiens) (UniProt P21127); details: Compound concentration 1000.0 nM
[34] = biological target: MAP kinase-interacting serine/threonine-protein kinase 1 (Homo sapiens) (UniProt Q9BUB5); details: Compound concentration 1000.0 nM
Sequence of MAP kinase-interacting serine/threonine-protein kinase 1 (Homo sapiens) (Q9BUB5 whole entry, looked up): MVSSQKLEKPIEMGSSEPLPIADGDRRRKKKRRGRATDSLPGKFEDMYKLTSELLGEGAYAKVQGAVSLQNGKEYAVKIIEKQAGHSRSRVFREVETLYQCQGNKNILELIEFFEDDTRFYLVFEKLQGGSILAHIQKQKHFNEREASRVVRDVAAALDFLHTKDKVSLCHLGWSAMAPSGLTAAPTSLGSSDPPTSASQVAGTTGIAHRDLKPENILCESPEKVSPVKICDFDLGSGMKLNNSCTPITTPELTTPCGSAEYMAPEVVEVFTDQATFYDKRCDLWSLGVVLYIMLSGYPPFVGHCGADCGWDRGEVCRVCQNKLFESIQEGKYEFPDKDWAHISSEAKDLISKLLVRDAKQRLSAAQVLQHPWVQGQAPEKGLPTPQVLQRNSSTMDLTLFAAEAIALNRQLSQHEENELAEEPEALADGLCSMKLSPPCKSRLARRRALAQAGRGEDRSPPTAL

[35] = biological target: Serine/threonine-protein kinase WNK2 (Homo sapiens) (UniProt Q9Y3S1); details: Compound concentration 1000.0 nM
[36] = biological target: Tyrosine-protein kinase ZAP-70 (Homo sapiens) (UniProt P43403); details: Compound concentration 1000.0 nM
[37] = biological target: Serine/threonine-protein kinase 4 (Homo sapiens) (UniProt Q13043); details: Compound concentration 1000.0 nM
[38] = biological target: D(1A) dopamine receptor (Homo sapiens) (UniProt P21728); details: Compound concentration 10.0 uM
[39] = biological target: 5-hydroxytryptamine receptor 6 (Homo sapiens) (UniProt P50406); details: Compound concentration 10.0 uM
Sequence of 5-hydroxytryptamine receptor 6 (Homo sapiens) (P50406 whole entry): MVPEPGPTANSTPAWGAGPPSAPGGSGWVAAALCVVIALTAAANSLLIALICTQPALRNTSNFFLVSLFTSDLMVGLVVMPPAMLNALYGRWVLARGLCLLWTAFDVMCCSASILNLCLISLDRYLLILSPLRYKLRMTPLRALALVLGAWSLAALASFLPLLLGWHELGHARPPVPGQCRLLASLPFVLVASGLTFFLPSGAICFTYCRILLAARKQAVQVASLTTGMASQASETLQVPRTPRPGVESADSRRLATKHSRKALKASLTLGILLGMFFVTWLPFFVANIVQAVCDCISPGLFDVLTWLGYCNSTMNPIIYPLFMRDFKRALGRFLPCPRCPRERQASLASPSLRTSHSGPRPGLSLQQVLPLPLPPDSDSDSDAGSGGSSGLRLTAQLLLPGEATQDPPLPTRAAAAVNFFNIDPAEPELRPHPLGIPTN

[40] = biological target: Proto-oncogene tyrosine-protein kinase receptor Ret (Homo sapiens) (UniProt P07949); details: Compound concentration 1000.0 nM
[41] = biological target: Dual specificity mitogen-activated protein kinase kinase 5 (Homo sapiens) (UniProt Q13163); details: Compound concentration 1000.0 nM
[42] = biological target: Tyrosine-protein kinase CSK (Homo sapiens) (UniProt P41240); details: Compound concentration 1000.0 nM
[43] = tested on: Proto-oncogene tyrosine-protein kinase receptor Ret (Homo sapiens), P07949 [V804L]; details: Compound concentration 1000.0 nM
[44] = biological target: Sigma intracellular receptor 2 (Homo sapiens) (UniProt Q5BJF2); details: Compound concentration 10.0 uM
[45] = biological target: Ephrin type-A receptor 8 (Homo sapiens) (UniProt P29322); details: Compound concentration 1000.0 nM
[46] = biological target: Serine/threonine-protein kinase OSR1 (Homo sapiens) (UniProt O95747); details: Compound concentration 1000.0 nM

## C[C@H](c1ccc(F)cc1)N(Cc1cccc(C(=O)O)c1)C(=O)c1cnc2ccccc2c1 [PF-05105679]
[1]
  residual activity: 90%
[2]
  IC50: 480 nM (active)
[3]
  residual activity: 98%
[4]
  inhibition: 6.54%
[5]
  residual activity: 100%
[6]
  residual activity: 100%
[7]
  residual activity: 93%
[8]
  residual activity: 100%
[9]
  residual activity: 98%
[10]
  residual activity: 95%
[11]
  residual activity: 100%
[12]
  residual activity: 100%
[13]
  residual activity: 86%
[14]
  residual activity: 100%
[15]
  residual activity: 64%
[16]
  residual activity: 100%
[17]
  residual activity: 100%
[18]
  residual activity: 100%
[19]
  residual activity: 100%
[20]
  residual activity: 100%
[21]
  residual activity: 88%
[22]
  residual activity: 82%
[23]
  Ki: 1020 nM
  pKi: 5.99
[24]
  residual activity: 100%
[25]
  inhibition: -8.16%
[26]
  residual activity: 100%
[27]
  residual activity: 93%
[28]
  residual activity: 88%
[29]
  inhibition: 22.9%
[30]
  residual activity: 100%
[31]
  residual activity: 93%
[32]
  residual activity: 100%
[33]
  residual activity: 84%
[34]
  residual activity: 100%
[35]
  residual activity: 96%
[36]
  residual activity: 96%
[37]
  residual activity: 92%
[38]
  inhibition: -0.79%
[39]
  inhibition: 3.57%
[40]
  residual activity: 100%
[41]
  residual activity: 92%
[42]
  residual activity: 100%
[43]
  residual activity: 85%
[44]
  inhibition: 3.36%
[45]
  residual activity: 76%
[46]
  residual activity: 100%
